Experimental data published in ChEMBL document CHEMBL1136455, “The synthesis and antibacterial activity of 1,3,4-thiadiazole phenyl oxazolidinone analogues” (Bioorg Med Chem Lett, 2003).
Values after ≈ are worked out from the molar mass of the structure shown.

How the values were obtained:
Enterococcus faecalis = experiment: In vitro antibacterial activity against vancomycin resistant Enterococcus faecalis UC 9217 (VREA); assay type: functional
Haemophilus influenzae = experiment: In vitro antibacterial activity against ampicillin resistant Haemophilus influenzae 30063 (B-lactamase +); assay type: functional
Moraxella catarrhalis = experiment: In vitro antibacterial activity against Moraxella catarrhalis 30607; assay type: functional
Staphylococcus aureus [1] = experiment: In vitro antibacterial activity against methicillin resistant Staphylococcus aureus UC 12673 (MRSA); assay type: functional
[2] = tested on: Staphylococcus epidermidis; experiment: In vitro antibacterial activity against methicillin resistant Staphylococcus epidermidis UC 12084; assay type: functional
Streptococcus pneumoniae = experiment: In vitro antibacterial activity against penicillin sensitive Streptococcus pneumoniae UC 9912; assay type: functional
Staphylococcus aureus [3] = experiment: In vitro antibacterial activity against methicillin susceptible Staphylococcus aureus UC 9213 (MSSA); assay type: functional
Mus musculus [4] = experiment: In vivo efficacy to protect the Staphylococcus aureus infected mouse and the activity was reported using Linezolid as a control with ED50 = 3.8; assay type: functional
Mus musculus [5] = experiment: In vivo efficacy to protect the Staphylococcus aureus infected mouse and the activity was reported using Linezolid as a control with ED50 = 2.9; assay type: functional
Mus musculus [6] = experiment: In vivo efficacy to protect the Staphylococcus aureus infected mouse and the activity was reported using Linezolid as a control with ED50 = 3.5; assay type: functional
Mus musculus [7] = experiment: In vivo efficacy to protect the Staphylococcus aureus infected mouse and the activity was reported using Linezolid as a control with ED50 = 4.3; assay type: functional
Mus musculus [8] = experiment: In vivo efficacy to protect the Staphylococcus aureus infected mouse and the activity was reported using Linezolid as a control with ED50 =[…]; assay type: functional
Mus musculus [9] = experiment: In vivo efficacy to protect the Staphylococcus aureus infected mouse and the activity was reported using Linezolid as a control with ED50 = 3.7; assay type: functional
[10] = tested on: Staphylococcus epidermidis; experiment: In vitro antibacterial activity against methicillin resistant Staphylococcus epidermidis UC 12084; range is 1-2; assay type: functional
Mus musculus [11] = experiment: In vivo efficacy to protect the Staphylococcus aureus infected mouse and the activity was reported using Linezolid as a control with ED50 =4; assay type: functional
Mus musculus [12] = experiment: In vivo efficacy to protect the Staphylococcus aureus infected mouse and the activity was reported using Linezolid as a control with ED50 =11.5; assay type: functional
Mus musculus [13] = experiment: In vivo efficacy to protect the Staphylococcus aureus infected mouse and the activity was reported using Linezolid as a control with ED50 = 5; assay type: functional
Mus musculus [14] = experiment: In vivo efficacy to protect the Staphylococcus aureus infected mouse and the activity was reported using Linezolid as a control with ED50 = 3.1; assay type: functional
[15] = Clearance in rat; assay type: ADME, organism-based; details: in vivo
[16] = Bioavailability in rat; assay type: ADME, organism-based; details: in vivo
Mus musculus [17] = experiment: In vivo efficacy to protect the Staphylococcus aureus infected mouse and the activity was reported using Linezolid as a control with ED50 = 8; assay type: functional
Mus musculus [18] = experiment: In vivo efficacy to protect the Staphylococcus aureus infected mouse and the activity was reported using Linezolid as a control with ED50 = 2.2; assay type: functional
Mus musculus [19] = experiment: In vivo efficacy to protect the Staphylococcus aureus infected mouse and the activity was reported using Linezolid as a control with ED50 = 1.8; assay type: functional
Mus musculus [20] = experiment: In vivo efficacy to protect the Staphylococcus aureus infected mouse and the activity was reported using Linezolid as a control with ED50 = 5.6; assay type: functional
Mus musculus [21] = experiment: In vivo efficacy to protect the Staphylococcus aureus infected mouse and the activity was reported using Linezolid as a control with ED50 = 2.2

| Compound | MIC (Enterococcus faecalis) [µg/mL] | MIC (Haemophilus influenzae) [µg/mL] | MIC (Moraxella catarrhalis) [µg/mL] | MIC (Staphylococcus aureus [1]) [µg/mL] | MIC [2] [µg/mL] | MIC (Streptococcus pneumoniae) [µg/mL] | MIC (Staphylococcus aureus [3]) [µg/mL] | also measured |
| --- | --- | --- | --- | --- | --- | --- | --- | --- |
| CC(=O)NC[C@H]1CN(c2ccc(-c3nnc(C[S+](C)[O-])s3)c(F)c2)C(=O)O1 (some centres not stated) | 4 (≈ 9.7 µM) | 8 (≈ 19.4 µM) | 8 (≈ 19.4 µM) | 8 (≈ 19.4 µM) | 0.5 (≈ 1.21 µM) | 0.25 (≈ 0.606 µM) | 8 (≈ 19.4 µM) | – |
| CC(=O)NC[C@H]1CN(c2ccc(-c3nnc(O)s3)c(F)c2)C(=O)O1 | 1 (≈ 2.84 µM) | 4 (≈ 11.4 µM) | 4 (≈ 11.4 µM) | 1 (≈ 2.84 µM) | 0.5 (≈ 1.42 µM) | 0.125 (≈ 0.355 µM) | 1 (≈ 2.84 µM) | ED50 (Mus musculus [4]): 13 mg/kg |
| CC(=O)NC[C@H]1CN(c2ccc(-c3nnc(CC#N)s3)c(F)c2)C(=O)O1 | 1 (≈ 2.66 µM) | 4 (≈ 10.7 µM) | 4 (≈ 10.7 µM) | 1 (≈ 2.66 µM) | 0.25 (≈ 0.666 µM) | 0.25 (≈ 0.666 µM) | 2 (≈ 5.33 µM) | ED50 (Mus musculus [5]): > 20 mg/kg |
| CC(=O)NC[C@H]1CN(c2ccc(-c3nnc(CC(N)=O)s3)c(F)c2)C(=O)O1 | 2 (≈ 5.08 µM) | 4 (≈ 10.2 µM) | 8 (≈ 20.3 µM) | 4 (≈ 10.2 µM) | 0.5 (≈ 1.27 µM) | < 0.125 | 4 (≈ 10.2 µM) | ED50 (Mus musculus [6]): > 20 mg/kg |
| CNCc1nnc(-c2ccc(N3C[C@H](C/N=C(/C)S)OC3=O)cc2F)s1 | < 0.5 | < 0.5 | < 0.5 | – | < 0.5 | < 0.5 | < 0.5 | ED50 (Mus musculus [7]): > 20 mg/kg |
| CC(=O)NC[C@H]1CN(c2ccc(-c3nnc(C(N)=O)s3)c(F)c2)C(=O)O1 | 1 (≈ 2.64 µM) | 16 (≈ 42.2 µM) | 4 (≈ 10.5 µM) | 0.5 (≈ 1.32 µM) | 0.25 (≈ 0.659 µM) | 0.25 (≈ 0.659 µM) | 0.5 (≈ 1.32 µM) | ED50 (Mus musculus [8]): 12.4 mg/kg |
| CNCc1nnc(-c2ccc(N3C[C@H](CNC(C)=O)OC3=O)cc2F)s1 | 2 (≈ 5.27 µM) | 4 (≈ 10.5 µM) | 4 (≈ 10.5 µM) | 4 (≈ 10.5 µM) | 1 (≈ 2.64 µM) | < 0.5 | 4 (≈ 10.5 µM) | – |
| CC(=O)NC[C@H]1CN(c2ccc(-c3nnc(COC(C)=O)s3)c(F)c2)C(=O)O1 | 1 (≈ 2.45 µM) | 4 (≈ 9.79 µM) | 2 (≈ 4.9 µM) | 1 (≈ 2.45 µM) | 0.25 (≈ 0.612 µM) | < 0.125 | 1 (≈ 2.45 µM) | ED50 (Mus musculus [9]): 18.5 mg/kg |
| CC(=O)NC[C@H]1CN(c2ccc(N3CCOCC3)c(F)c2)C(=O)O1 [LINEZOLID] | – | 16 (≈ 47.4 µM) | 8 (≈ 23.7 µM) | – | – | – | – | MIC [10]: 1 µg/mL (≈ 2.96 µM) |
| CC(=O)NC[C@H]1CN(c2ccc(-c3nnc(CF)s3)c(F)c2)C(=O)O1 | 1 (≈ 2.71 µM) | 4 (≈ 10.9 µM) | 2 (≈ 5.43 µM) | 1 (≈ 2.71 µM) | 0.25 (≈ 0.679 µM) | 0.25 (≈ 0.679 µM) | 1 (≈ 2.71 µM) | ED50 (Mus musculus [11]): 8.6 mg/kg |
| CC(=O)NC[C@H]1CN(c2ccc(-c3nnc(CN)s3)c(F)c2)C(=O)O1 | 1 (≈ 2.74 µM) | 2 (≈ 5.47 µM) | 2 (≈ 5.47 µM) | 4 (≈ 10.9 µM) | 1 (≈ 2.74 µM) | < 0.125 | 8 (≈ 21.9 µM) | ED50 (Mus musculus [12]): 21.3 mg/kg |
| C/C(S)=N/C[C@H]1CN(c2ccc(-c3nnc(CS(C)(=O)=O)s3)c(F)c2)C(=O)O1 | 0.25 (≈ 0.562 µM) | 2 (≈ 4.5 µM) | 0.5 (≈ 1.12 µM) | 0.5 (≈ 1.12 µM) | 0.25 (≈ 0.562 µM) | 0.06 (≈ 0.135 µM) | 0.25 (≈ 0.562 µM) | ED50 (Mus musculus [13]): > 20 mg/kg |
| CSCc1nnc(-c2ccc(N3C[C@H](CNC(C)=O)OC3=O)cc2F)s1 | 1 (≈ 2.52 µM) | > 16 | 4 (≈ 10.1 µM) | 1 (≈ 2.52 µM) | 0.25 (≈ 0.631 µM) | 0.25 (≈ 0.631 µM) | 1 (≈ 2.52 µM) | – |
| CCOC(=O)c1nnc(-c2ccc(N3C[C@H](CNC(C)=O)OC3=O)cc2F)s1 | 8 (≈ 19.6 µM) | > 16 | 16 (≈ 39.2 µM) | 8 (≈ 19.6 µM) | 2 (≈ 4.9 µM) | < 0.125 | 8 (≈ 19.6 µM) | – |
| CC(=O)NC[C@H]1CN(c2ccc(-c3nnc(CC/C(C)=N/O)s3)c(F)c2)C(=O)O1 | 1 (≈ 2.37 µM) | 4 (≈ 9.49 µM) | 4 (≈ 9.49 µM) | 2 (≈ 4.75 µM) | 0.5 (≈ 1.19 µM) | < 0.125 | 2 (≈ 4.75 µM) | ED50 (Mus musculus [13]): > 20 mg/kg |
| CC(=O)NC[C@H]1CN(c2ccc(-c3nnc(C)s3)c(F)c2)C(=O)O1 | 0.5 (≈ 1.43 µM) | 2 (≈ 5.71 µM) | 2 (≈ 5.71 µM) | 0.5 (≈ 1.43 µM) | < 0.125 | < 0.125 | 1 (≈ 2.85 µM) | ED50 (Mus musculus [6]): 6.2 mg/kg |
| CC(=O)NC[C@H]1CN(c2ccc(-c3nnc(CO)s3)c(F)c2)C(=O)O1 | 1 (≈ 2.73 µM) | 4 (≈ 10.9 µM) | 2 (≈ 5.46 µM) | 1 (≈ 2.73 µM) | 0.25 (≈ 0.682 µM) | < 0.125 | 1 (≈ 2.73 µM) | ED50 (Mus musculus [14]): 8.7 mg/kg |
| C/C(S)=N/C[C@H]1CN(c2ccc(-c3nnc(CN)s3)c(F)c2)C(=O)O1 | < 0.5 | < 0.5 | < 0.5 | – | < 0.5 | < 0.5 | < 0.5 | clearance [15]: 34.3 mL/min/kg; bioavailability [16]: 14%; ED50 (Mus musculus [17]): > 20 mg/kg |
| COCc1nnc(-c2ccc(N3C[C@H](CNC(C)=O)OC3=O)cc2F)s1 | 1 (≈ 2.63 µM) | 8 (≈ 21 µM) | 4 (≈ 10.5 µM) | 1 (≈ 2.63 µM) | 4 (≈ 10.5 µM) | 0.25 (≈ 0.657 µM) | 2 (≈ 5.26 µM) | ED50 (Mus musculus [18]): 5.8 mg/kg |
| CC(=O)NC[C@H]1CN(c2ccc(-c3nncs3)c(F)c2)C(=O)O1 | 1 (≈ 2.97 µM) | 4 (≈ 11.9 µM) | 4 (≈ 11.9 µM) | 1 (≈ 2.97 µM) | 0.25 (≈ 0.743 µM) | 0.25 (≈ 0.743 µM) | 1 (≈ 2.97 µM) | ED50 (Mus musculus [19]): 2.2 mg/kg |
| CCc1nnc(-c2ccc(N3C[C@H](CNC(C)=O)OC3=O)cc2F)s1 | 0.5 (≈ 1.37 µM) | 4 (≈ 11 µM) | 2 (≈ 5.49 µM) | 0.5 (≈ 1.37 µM) | 0.25 (≈ 0.686 µM) | 0.25 (≈ 0.686 µM) | 1 (≈ 2.74 µM) | ED50 (Mus musculus [4]): 9.2 mg/kg |
| C/C(S)=N/C[C@H]1CN(c2ccc(-c3nncs3)c(F)c2)C(=O)O1 | 0.125 (≈ 0.355 µM) | 1 (≈ 2.84 µM) | 0.25 (≈ 0.709 µM) | < 0.125 | < 0.125 | < 0.125 | 0.25 (≈ 0.709 µM) | ED50 (Mus musculus [20]): > 20 mg/kg |
| CC(=O)NC[C@H]1CN(c2ccc(-c3nnc(CS(C)(=O)=O)s3)c(F)c2)C(=O)O1 | 2 (≈ 4.67 µM) | 4 (≈ 9.34 µM) | 4 (≈ 9.34 µM) | 4 (≈ 9.34 µM) | 1 (≈ 2.33 µM) | < 0.5 | 4 (≈ 9.34 µM) | – |
| CC(=O)CCc1nnc(-c2ccc(N3C[C@H](CNC(C)=O)OC3=O)cc2F)s1 | 0.5 (≈ 1.23 µM) | 4 (≈ 9.84 µM) | 4 (≈ 9.84 µM) | 1 (≈ 2.46 µM) | 0.25 (≈ 0.615 µM) | < 0.125 | 1 (≈ 2.46 µM) | ED50 (Mus musculus [21]): 7.6 mg/kg |
